Assay results from US20260285850A1, “SUBSTITUTED OXAZOLIDINONES AND IMIDAZOLINONES AS HERBICIDES” (FMC CORPORATION, priority 2023, published 2026).

How the values were obtained:
Format in all cases: in vivo
[1] = system: barnyardgrass (Echinochloa crus-galli); test: Test A preemergence soil spray, visual injury rating 0-100; settings: 10 days, 0 = no effect, 100 = complete control
From the text: (§1) Seeds of plant species selected from barnyardgrass (Echinochloa crus-galli), blackgrass (Alopecurus myosuroides), corn (Zea mays), foxtail, giant (giant foxtail, Setaria faberi), green foxtail (Setaria viridis), goosegrass (Eleusine indica), kochia (Bassia scoparia), oat, wild (wild oat, Avena fatua), palmer (palmer amaranth, palmer pigweed, Amaranthus palmeri), ragweed (common ragweed, Ambrosia artemisiifolia), ryegrass, Italian (italian ryegrass, Lolium multiflorum), soybean (Glycine max) and wheat (Triticum aestivum) were planted into a blend of loam soil and sand and treated preemergence with a directed soil spray using test chemicals formulated in a non-phytotoxic solvent mixture which included a surfactant.
(§2) At the same time, plants selected from these crops and weed species and also galium (catchweed bedstraw, Galium aparine) and horseweed (Erigeron canadensis) were planted in pots containing the same blend of loam soil and sand and treated with postemergence applications of test chemicals formulated in the same manner. Plants ranged in height from 2 to 10 cm and were in the one- to two-leaf stage for the postemergence treatment. Treated plants and untreated controls were maintained in a greenhouse for 10 days, after which time all treated plants were compared to untreated controls and visually evaluated for injury. Plant response ratings, summarized in Table A, are based on a 0 to 100 scale where 0 is no effect and 100 is complete control. A dash (-) response means no test result.

[2] = system: blackgrass (Alopecurus myosuroides); test: as above; settings: 10 days, 0 = no effect, 100 = complete control
From the text: as §1, §2

[3] = system: corn (Zea mays); test: as above; settings: 10 days, 0 = no effect, 100 = complete control
From the text: as §1, §2

[4] = system: green foxtail (Setaria viridis); test: as above; settings: 10 days, 0 = no effect, 100 = complete control
From the text: as §1, §2

[5] = system: kochia (Bassia scoparia); test: as above; settings: 10 days, 0 = no effect, 100 = complete control
From the text: as §1, §2

[6] = system: oat, wild (wild oat, Avena fatua); test: as above; settings: 10 days, 0 = no effect, 100 = complete control
From the text: as §1, §2

[7] = system: palmer (palmer amaranth, palmer pigweed, Amaranthus palmeri); test: as above; settings: 10 days, 0 = no effect, 100 = complete control
From the text: as §1, §2

[8] = system: ragweed (common ragweed, Ambrosia artemisiifolia); test: as above; settings: 10 days, 0 = no effect, 100 = complete control
From the text: as §1, §2

[9] = system: ryegrass, Italian (italian ryegrass, Lolium multiflorum); test: as above; settings: 10 days, 0 = no effect, 100 = complete control
From the text: as §1, §2

[10] = system: soybean (Glycine max); test: as above; settings: 10 days, 0 = no effect, 100 = complete control
From the text: as §1, §2

[11] = system: wheat (Triticum aestivum); test: as above; settings: 10 days, 0 = no effect, 100 = complete control
From the text: as §1, §2

[12] = system: barnyardgrass (Echinochloa crus-galli); test: Test A postemergence application, visual injury rating 0-100; settings: 10 days
From the text: as §1, §2

[13] = system: blackgrass (Alopecurus myosuroides); test: as above; settings: 10 days
From the text: as §1, §2

[14] = system: corn (Zea mays); test: as above; settings: 10 days
From the text: as §1, §2

[15] = system: green foxtail (Setaria viridis); test: as above; settings: 10 days
From the text: as §1, §2

[16] = system: horseweed (Erigeron canadensis); test: as above; settings: 10 days
From the text: as §1, §2

[17] = system: kochia (Bassia scoparia); test: as above; settings: 10 days
From the text: as §1, §2

[18] = system: oat, wild (wild oat, Avena fatua); test: as above; settings: 10 days
From the text: as §1, §2

[19] = system: palmer (palmer amaranth, palmer pigweed, Amaranthus palmeri); test: as above; settings: 10 days
From the text: as §1, §2

[20] = system: ragweed (common ragweed, Ambrosia artemisiifolia); test: as above; settings: 10 days
From the text: as §1, §2

[21] = system: ryegrass, Italian (italian ryegrass, Lolium multiflorum); test: as above; settings: 10 days
From the text: as §1, §2

[22] = system: soybean (Glycine max); test: as above; settings: 10 days
From the text: as §1, §2

[23] = system: wheat (Triticum aestivum); test: as above; settings: 10 days
From the text: as §1, §2

[24] = system: barnyardgrass (Echinochloa crusgalli); test: Test B flooded paddy test, visual plant response rating 0-100; settings: 250 g ai/ha, Flood, applied to paddy water, evaluated after 13 days
Description: (§3) Plant species in the flooded paddy test selected from barnyardgrass (Echinochloa crusgalli), ducksalad (Heteranthera limosa), rice (Oryza sativa), and sedge, umbrella (small-flower umbrella sedge, Cyperus difformis) were grown to the 2-leaf stage for testing. At time of treatment, test pots were flooded to 3 cm above the soil surface, treated by application of test compounds directly to the paddy water, and then maintained at that water depth for the duration of the test. Treated plants and controls were maintained in a greenhouse for 13 days, after which time all species were compared to controls and visually evaluated. […] A dash (-) response means no test result.

[25] = system: ducksalad (Heteranthera limosa); test: as above; settings: 250 g ai/ha, Flood, applied to paddy water, evaluated after 13 days
Description: as §3

[26] = system: rice (Oryza sativa); test: as above; settings: 250 g ai/ha, Flood, applied to paddy water, evaluated after 13 days
Description: as §3

[27] = system: sedge, umbrella (small-flower umbrella sedge, Cyperus difformis); test: as above; settings: 250 g ai/ha, Flood, applied to paddy water, evaluated after 13 days
Description: as §3

[28] = 31 g ai/ha, postemergence, 0 = no effect, 100 = complete control
[29] = Postemergence, 125 g ai/ha, 0 is no effect, 100 is complete control

## CNC(=O)C1CC(NC(=O)C2(C)CN(c3cc(F)cc(F)c3)C(=O)O2)CO1 (centres unmarked) [Compound 8]
[1]; 31 g ai/ha
  Barnyardgrass plant response rating (0-100): 0
[1]; 125 g ai/ha
  Barnyardgrass plant response rating (0 to 100 scale): 10
[2]; 31 g ai/ha
  Blackgrass plant response rating (0-100): 0
[2]; 125 g ai/ha
  Blackgrass plant response rating (0 to 100 scale): 50
[3]; 31 g ai/ha
  Corn plant response rating (0-100): 0
[3]; 125 g ai/ha
  Corn plant response rating (0 to 100 scale): 0
[4]; 31 g ai/ha
  Foxtail, Green plant response rating (0-100): 0
[4]; 125 g ai/ha
  Foxtail, Green plant response rating (0 to 100 scale): 40
[5]; 31 g ai/ha
  Kochia plant response rating (0-100): 0
[5]; 125 g ai/ha
  Kochia plant response rating (0 to 100 scale): 70
[6]; 31 g ai/ha
  Oat, Wild plant response rating (0-100): 0
[6]; 125 g ai/ha
  Oat, Wild plant response rating (0 to 100 scale): 20
[7]; 31 g ai/ha
  Amaranth, Palmer plant response rating (0-100): 0
[7]; 125 g ai/ha
  Amaranth, Palmer plant response rating (0 to 100 scale): 0
[8]; 31 g ai/ha
  Ragweed plant response rating (0-100): 60
[8]; 125 g ai/ha
  Ragweed plant response rating (0 to 100 scale): 0
[9]; 31 g ai/ha
  Ryegrass, Italian plant response rating (0-100): 0
[9]; 125 g ai/ha
  Ryegrass, Italian plant response rating (0 to 100 scale): 60
[10]; 31 g ai/ha
  Soybean plant response rating (0-100): 0
[10]; 125 g ai/ha
  Soybean plant response rating (0 to 100 scale): 0
[11]; 31 g ai/ha
  Wheat plant response rating (0-100): 0
[11]; 125 g ai/ha
  Wheat plant response rating (0 to 100 scale): 80
[12]; [28]
  Barnyardgrass plant response rating (0-100): 0
[12]; [29]
  Barnyardgrass plant response rating (0 to 100 scale): 0
[13]; [28]
  Blackgrass plant response rating (0-100): 0
[13]; [29]
  Blackgrass plant response rating (0 to 100 scale): 90
[14]; [28]
  Corn plant response rating (0-100): 0
[14]; [29]
  Corn plant response rating (0 to 100 scale): 0
[15]; [28]
  Foxtail, Green plant response rating (0-100): 0
[15]; [29]
  Foxtail, Green plant response rating (0 to 100 scale): 0
[16]; [28]
  Horseweed plant response rating (0-100): 30
[16]; [29]
  Horseweed plant response rating (0 to 100 scale): 10
[17]; [28]
  Kochia plant response rating (0-100): 0
[17]; [29]
  Kochia plant response rating (0 to 100 scale): 20
[18]; [28]
  Oat, Wild plant response rating (0-100): 0
[18]; [29]
  Oat, Wild plant response rating (0 to 100 scale): 0
[19]; [28]
  Amaranth, Palmer plant response rating (0-100): 0
[19]; [29]
  Amaranth, Palmer / Pigweed, Palmer plant response rating (0 to 100 scale): 0
[20]; [28]
  Ragweed plant response rating (0-100): 0
[20]; [29]
  Ragweed plant response rating (0 to 100 scale): 0
[21]; [28]
  Ryegrass, Italian plant response rating (0-100): 0
[21]; [29]
  Ryegrass, Italian plant response rating (0 to 100 scale): 0
[22]; [28]
  Soybean plant response rating (0-100): 0
[22]; [29]
  Soybean plant response rating (0 to 100 scale): 0
[23]; [28]
  Wheat plant response rating (0-100): 0
[23]; [29]
  Wheat plant response rating (0 to 100 scale): 20
[24]
  Plant response rating, Barnyardgrass (0 to 100 scale, 0 is no effect and 100 is complete control): 0
[25]
  Plant response rating, Ducksalad (0 to 100 scale, 0 is no effect and 100 is complete control): 0
[26]
  Plant response rating, Rice (0 to 100 scale, 0 is no effect and 100 is complete control): 0
[27]
  Plant response rating, Sedge, Umbrella (0 to 100 scale, 0 is no effect and 100 is complete control): 0
